# Experimental data taken from ChEMBL document CHEMBL5241127, “Design, synthesis and biological evaluation of novel 9-N-substituted-13-alkylberberine derivatives from Chinese medicine as anti-hepatocellular carcinoma agents” (Bioorg Med Chem, 2023).
# Experiments:
# HepG2 = assay: Antiproliferative activity against human HepG2 cells assessed as inhibition of cell growth incubated for 72 hrs by MTT assay; type: functional, cell-based; settings: HepG2, 72 h
# DNA = assay: Binding affinity to duplex DNA (unknown origin) using fluorescent tagged F10T model assessed as stabilization by measuring change in melting temperature at 2 uM by fluorescence based analysis; type: nucleic-acid assay
# Quadruplex DNA [1] = assay: Binding affinity to c-MYC G4-quadruplex DNA (unknown origin) using fluorescent tagged FPu18T model assessed as stabilization by measuring change in melting temperature at 2 uM by fluorescence based analysis; type: nucleic-acid assay
# Quadruplex DNA [2] = assay: Binding affinity to c-MYC G4-quadruplex DNA (unknown origin) using fluorescent tagged FPu18T model assessed as stabilization by measuring change in melting temperature at 2 uM incubated in presence of non-fluorescent ds26 DNA by fluorescence based analysis; type: nucleic-acid assay
# H22 = assay: Antitumor activity against […] xenografted in ICR mouse assessed as inhibition of tumor growth at 20 mg/kg, iv administered for 21 days and measured every 2 days relative to control; type: functional; settings: H22, 504 h, time 21 day, read-out: TGI
Structure (SMILES),IC50 (HepG2) [µM],further results
CCCCCCCCCCCCc1c2[n+](cc3c(NCCN(C)C)c(OC)ccc13)CCc1cc3c(cc1-2)OCO3,1.24,–
O=P1(N(CCCl)CCCl)NCCCO1 (stereo unspecified) [CYCLOPHOSPHAMIDE ANHYDROUS],–,inhibition in vivo at 20 mg/kg (H22): 64.6%
CCCCCCCCCCc1c2[n+](cc3c(NCCO)c(OC)ccc13)CCc1cc3c(cc1-2)OCO3,2.03,–

# The remaining molecules from weak to strong by IC50 (HepG2), led by results:
IC50 (HepG2) [µM],Structure (SMILES),further results
8.61,CCCCCCCCc1c2[n+](cc3c(NCCN)c(OC)ccc13)CCc1cc3c(cc1-2)OCO3,–
5.17,CCCCCCCCc1c2[n+](cc3c(NCCCCN)c(OC)ccc13)CCc1cc3c(cc1-2)OCO3,–
4.52,CCCCCCc1c2[n+](cc3c(NCCO)c(OC)ccc13)CCc1cc3c(cc1-2)OCO3,–
2.31,CCCCCCCCCCCCc1c2[n+](cc3c(NCCO)c(OC)ccc13)CCc1cc3c(cc1-2)OCO3,–
1.01,CCCCCCCCc1c2[n+](c3c4c(c(OC)ccc14)N(CCN(C)C)C=C3)CCc1cc3c(cc1-2)OCO3,ΔTm (DNA): 0.4 °C; ΔTm (Quadruplex DNA [1]): 21.8 °C; ΔTm (Quadruplex DNA [2]): 21.1 °C
